Assay results: PubChem BioAssay (NCI)
“And” between values parts separate entries of the source, which are not always exact repeats. Equal values may be shown once.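 All cell lines were grown in 96-well plates and treated with compound for 48 hours. GI50 is the concentration that inhibits growth by half. Definition used: TGI = concentration required for complete inhibition of growth.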

Legend:
Assay in all cases: NCI tumour cell line growth inhibition, 48 h
ACHN renal = tested on: ACHN renal
DU-145 prostate = tested on: DU-145 prostate
IGROV1 ovarian = tested on: IGROV1 ovarian
NCI-H226 lung = tested on: NCI-H226 lung
NCI-H23 lung = tested on: NCI-H23 lung
NCI-H460 lung = tested on: NCI-H460 lung
SN12C renal = tested on: SN12C renal
SNB-19 CNS = tested on: SNB-19 CNS
U251 CNS = tested on: U251 CNS
UACC-62 melanoma = tested on: UACC-62 melanoma

C=C1C(=O)O[C@H]2[C@H]1CC/C(COC(=O)C(=O)c1cn(C)c3ccc(OC)cc13)=C\CC[C@@]1(C)O[C@@H]21
GI50 (ACHN renal): 3.18 µM
TGI (ACHN renal): 7.79 µM
GI50 (DU-145 prostate): 6.67 µM
TGI (DU-145 prostate): 15.5 µM
GI50 (IGROV1 ovarian): 2.27 µM
TGI (IGROV1 ovarian): 6.01 µM
GI50 (NCI-H226 lung): 5.45 µM
TGI (NCI-H226 lung): 10.1 µM
GI50 (NCI-H23 lung): 6.44 µM
TGI (NCI-H23 lung): 12.4 µM
GI50 (NCI-H460 lung): 7.2 µM
TGI (NCI-H460 lung): 14.4 µM
GI50 (SN12C renal): 6.1 µM
TGI (SN12C renal): 12.8 µM
GI50 (SNB-19 CNS): 9.07 µM
TGI (SNB-19 CNS): 21.8 µM
GI50 (U251 CNS): 6.58 µM
TGI (U251 CNS): 10.1 µM
GI50 (UACC-62 melanoma): 2.8 µM
TGI (UACC-62 melanoma): 7.08 µM

COc1cccc2c1C(=O)c1c(O)c3c(c(O)c1C2=O)C[C@@](O)(/C(C)=N\O)C[C@@H]3OC1CC(N)C(O)C(C)O1 (stereo partly drawn)
TGI (ACHN renal): 10.8 µM
TGI (DU-145 prostate): 5.74 µM
TGI (IGROV1 ovarian): 17.2 µM
TGI (NCI-H226 lung): 7.52 µM
TGI (NCI-H23 lung): 3.8 µM
TGI (NCI-H460 lung): 8.16 µM
TGI (SN12C renal): 13.1 µM
TGI (SNB-19 CNS): 8.93 µM
TGI (U251 CNS): 7.73 µM
TGI (UACC-62 melanoma): 2.94 µM

CCCCc1nc2cc(/C=C/C(=O)NO)ccc2n1CCN(CC)CC
GI50 (ACHN renal): 0.285 µM
TGI (ACHN renal): 1.44 µM
GI50 (DU-145 prostate): 0.302 µM
TGI (DU-145 prostate): 4.64 µM
GI50 (IGROV1 ovarian): 0.733 µM
TGI (IGROV1 ovarian): 5.67 µM
GI50 (NCI-H226 lung): 0.608 µM
TGI (NCI-H226 lung): 3.45 µM
GI50 (NCI-H23 lung): 0.452 µM
TGI (NCI-H23 lung): 7.72 µM
GI50 (NCI-H460 lung): 0.312 µM
TGI (NCI-H460 lung): > 100 µM
GI50 (SN12C renal): 0.489 µM
TGI (SN12C renal): 30.1 µM
GI50 (SNB-19 CNS): 0.593 µM
TGI (SNB-19 CNS): 12.2 µM
GI50 (U251 CNS): 0.28 µM
TGI (U251 CNS): 1.43 µM
GI50 (UACC-62 melanoma): 0.188 µM
TGI (UACC-62 melanoma): 0.743 µM

CC(C)(CCC(C)(C)c1ccccc1)c1ccccc1
TGI (ACHN renal): 31.7 µM
TGI (DU-145 prostate): 38.5 µM
TGI (IGROV1 ovarian): 79.7 µM
TGI (NCI-H226 lung): 37.6 µM
TGI (NCI-H23 lung): 33.9 µM
TGI (NCI-H460 lung): 31.9 µM
TGI (SN12C renal): 32.7 µM
TGI (SNB-19 CNS): 33.7 µM
TGI (U251 CNS): 30.4 µM
TGI (UACC-62 melanoma): 41.4 µM

COc1ccc(-c2c(C#N)c(N)nc3c2CCCc2ccc(F)cc2-3)cc1OC
TGI (ACHN renal): 19.4 µM
GI50 (DU-145 prostate): 0.0164 µM
TGI (DU-145 prostate): 15.7 µM
GI50 (IGROV1 ovarian): 0.131 µM
TGI (IGROV1 ovarian): > 100 µM
GI50 (NCI-H226 lung): < 0.01 µM
TGI (NCI-H226 lung): > 100 µM
GI50 (NCI-H23 lung): 0.487 µM
TGI (NCI-H23 lung): > 100 µM
GI50 (NCI-H460 lung): 0.0163 µM
TGI (NCI-H460 lung): > 52.6 µM
GI50 (SN12C renal): < 0.0499 µM
TGI (SN12C renal): 4.75 µM
GI50 (SNB-19 CNS): 20.7 µM
TGI (SNB-19 CNS): > 92.1 µM
GI50 (U251 CNS): < 0.0501 µM
GI50 (UACC-62 melanoma): < 0.0169 µM

NCC(=O)CCC(=O)O
GI50 (ACHN renal): > 100 µM
TGI (ACHN renal): > 100 µM
GI50 (DU-145 prostate): > 100 µM
TGI (DU-145 prostate): > 100 µM
GI50 (IGROV1 ovarian): > 100 µM
TGI (IGROV1 ovarian): > 100 µM
GI50 (NCI-H226 lung): > 100 µM
TGI (NCI-H226 lung): > 100 µM
GI50 (NCI-H23 lung): > 100 µM
TGI (NCI-H23 lung): > 100 µM
GI50 (NCI-H460 lung): > 100 µM
TGI (NCI-H460 lung): > 100 µM
GI50 (SN12C renal): > 100 µM
TGI (SN12C renal): > 100 µM
GI50 (SNB-19 CNS): > 100 µM
TGI (SNB-19 CNS): > 100 µM
GI50 (U251 CNS): > 100 µM
TGI (U251 CNS): > 100 µM
GI50 (UACC-62 melanoma): > 100 µM
TGI (UACC-62 melanoma): > 100 µM

Cc1ccc(-n2c(-c3ccc(Cl)cc3)cs/c2=N\NC(=O)COc2n[nH]c(=O)c3ccccc23)cc1
GI50 (ACHN renal): > 100 µM
TGI (ACHN renal): > 100 µM
GI50 (DU-145 prostate): > 100 µM
TGI (DU-145 prostate): > 100 µM
GI50 (IGROV1 ovarian): > 100 µM
TGI (IGROV1 ovarian): > 100 µM
GI50 (NCI-H226 lung): 39.6 µM
TGI (NCI-H226 lung): > 100 µM
GI50 (NCI-H23 lung): 34.1 µM
TGI (NCI-H23 lung): > 100 µM
GI50 (NCI-H460 lung): > 100 µM
TGI (NCI-H460 lung): > 100 µM
GI50 (SN12C renal): 78.1 µM
TGI (SN12C renal): > 100 µM
GI50 (SNB-19 CNS): 40 µM
TGI (SNB-19 CNS): > 100 µM
GI50 (U251 CNS): 37.5 µM
TGI (U251 CNS): > 100 µM
GI50 (UACC-62 melanoma): 23.4 µM
TGI (UACC-62 melanoma): > 100 µM

C=C1C(=O)O[C@H]2[C@H]1CC(=O)/C(C)=C\CC[C@@]1(C)O[C@@H]21
GI50 (ACHN renal): 0.822 µg/mL
TGI (ACHN renal): 2.38 µg/mL
GI50 (DU-145 prostate): 3.44 µg/mL
TGI (DU-145 prostate): 7.11 µg/mL
GI50 (IGROV1 ovarian): 2.17 µg/mL
TGI (IGROV1 ovarian): 5.8 µg/mL
GI50 (NCI-H226 lung): 4.71 µg/mL
TGI (NCI-H226 lung): 9.45 µg/mL
GI50 (NCI-H23 lung): 3.94 µg/mL
TGI (NCI-H23 lung): 8.18 µg/mL
GI50 (NCI-H460 lung): 3.83 µg/mL
TGI (NCI-H460 lung): 8.08 µg/mL
GI50 (SN12C renal): 4.17 µg/mL
TGI (SN12C renal): 8.4 µg/mL
GI50 (SNB-19 CNS): 7.62 µg/mL
TGI (SNB-19 CNS): 16.1 µg/mL
GI50 (U251 CNS): 5.32 µg/mL
TGI (U251 CNS): 10.9 µg/mL
GI50 (UACC-62 melanoma): 2.75 µg/mL
TGI (UACC-62 melanoma): 6.02 µg/mL

O=C(CC(=O)c1ccccc1NC1=Cc2ccccc2C(=O)C1=O)C(=O)NC1=C(Cl)C(=O)c2ccccc2C1=O
TGI (ACHN renal): 10.7 µM
TGI (DU-145 prostate): 16.1 µM
TGI (IGROV1 ovarian): 17.6 µM
TGI (NCI-H226 lung): 20.1 µM
TGI (NCI-H23 lung): 6.25 µM
TGI (NCI-H460 lung): 12.1 µM
TGI (SN12C renal): 3.67 µM
TGI (SNB-19 CNS): 16.7 µM
TGI (U251 CNS): 12.5 µM
TGI (UACC-62 melanoma): 3.97 µM

O=[N+]([O-])c1ccc(O)c2ncccc12
GI50 (ACHN renal): 42.5 µM and 4.81 µM
TGI (ACHN renal): > 100 µM and 35.8 µM
TGI (DU-145 prostate): > 100 µM and 15.2 µM
TGI (IGROV1 ovarian): > 100 µM and 13.8 µM
TGI (NCI-H226 lung): > 100 µM and 18.6 µM
TGI (NCI-H23 lung): > 100 µM and 28.9 µM
TGI (NCI-H460 lung): > 100 µM and 11.4 µM
TGI (SN12C renal): > 100 µM and 58.1 µM
TGI (SNB-19 CNS): > 100 µM and 32.6 µM
TGI (U251 CNS): > 100 µM and 13.3 µM
TGI (UACC-62 melanoma): > 100 µM and 11.6 µM

N#Cc1ccc2oc3ccc(C#N)cc3c(=O)c2c1
TGI (ACHN renal): > 100 µM
TGI (DU-145 prostate): > 100 µM
TGI (IGROV1 ovarian): > 100 µM
TGI (NCI-H226 lung): 77.5 µM
TGI (NCI-H23 lung): 51.1 µM
TGI (NCI-H460 lung): 37.4 µM
TGI (SN12C renal): > 100 µM
TGI (SNB-19 CNS): 64.8 µM
TGI (U251 CNS): 31.7 µM
TGI (UACC-62 melanoma): 41.6 µM

COc1ccc(Cn2cc(Cn3c(=O)c(-c4nc5ccccc5[nH]4)cc4ccccc43)nn2)c(OC)c1OC
GI50 (ACHN renal): 0.476 µM and 0.68 µM
TGI (ACHN renal): 1.67 µM and 4.17 µM
GI50 (DU-145 prostate): 0.22 µM
TGI (DU-145 prostate): 0.769 µM
GI50 (IGROV1 ovarian): 0.186 µM and 0.445 µM
TGI (IGROV1 ovarian): 1.84 µM and 3.66 µM
GI50 (NCI-H226 lung): 0.338 µM
TGI (NCI-H226 lung): > 100 µM
GI50 (NCI-H23 lung): 0.329 µM and 0.581 µM
TGI (NCI-H23 lung): 50 µM and > 100 µM
GI50 (NCI-H460 lung): 0.18 µM
TGI (NCI-H460 lung): 0.893 µM
GI50 (SN12C renal): 0.217 µM and 0.426 µM
TGI (SN12C renal): 50 µM and > 100 µM
GI50 (SNB-19 CNS): 0.423 µM
TGI (SNB-19 CNS): > 100 µM
GI50 (U251 CNS): 0.308 µM and 0.183 µM
TGI (U251 CNS): 8.29 µM and 17.6 µM
GI50 (UACC-62 melanoma): 0.672 µM
TGI (UACC-62 melanoma): 5.42 µM
